# Laboratory results: patent publication US12497394B2, “Fused-cyclic pyrazolone formamide compound and preparation method therefor, pharmaceutical composition and use thereof” (SHANGHAI INSTITUTE OF MATERIA MEDICA, CHINESE ACADEMY OF …, priority 2018, dated 2025)
# Several values for one entry are separate records, joined by “and”; a condition that tells them apart may be missing. Equal entries are not always repeated. Where two headings read alike, the source gives them in different places.
# Columns and labels:
# [1] = target: receptor tyrosine kinase c-Met (Homo sapiens, UniProt P08581); assay: In vitro c-Met kinase inhibitory activity; type: biochemical; settings: two values per compound
# Chain of receptor tyrosine kinase c-Met (P08581 25-1390): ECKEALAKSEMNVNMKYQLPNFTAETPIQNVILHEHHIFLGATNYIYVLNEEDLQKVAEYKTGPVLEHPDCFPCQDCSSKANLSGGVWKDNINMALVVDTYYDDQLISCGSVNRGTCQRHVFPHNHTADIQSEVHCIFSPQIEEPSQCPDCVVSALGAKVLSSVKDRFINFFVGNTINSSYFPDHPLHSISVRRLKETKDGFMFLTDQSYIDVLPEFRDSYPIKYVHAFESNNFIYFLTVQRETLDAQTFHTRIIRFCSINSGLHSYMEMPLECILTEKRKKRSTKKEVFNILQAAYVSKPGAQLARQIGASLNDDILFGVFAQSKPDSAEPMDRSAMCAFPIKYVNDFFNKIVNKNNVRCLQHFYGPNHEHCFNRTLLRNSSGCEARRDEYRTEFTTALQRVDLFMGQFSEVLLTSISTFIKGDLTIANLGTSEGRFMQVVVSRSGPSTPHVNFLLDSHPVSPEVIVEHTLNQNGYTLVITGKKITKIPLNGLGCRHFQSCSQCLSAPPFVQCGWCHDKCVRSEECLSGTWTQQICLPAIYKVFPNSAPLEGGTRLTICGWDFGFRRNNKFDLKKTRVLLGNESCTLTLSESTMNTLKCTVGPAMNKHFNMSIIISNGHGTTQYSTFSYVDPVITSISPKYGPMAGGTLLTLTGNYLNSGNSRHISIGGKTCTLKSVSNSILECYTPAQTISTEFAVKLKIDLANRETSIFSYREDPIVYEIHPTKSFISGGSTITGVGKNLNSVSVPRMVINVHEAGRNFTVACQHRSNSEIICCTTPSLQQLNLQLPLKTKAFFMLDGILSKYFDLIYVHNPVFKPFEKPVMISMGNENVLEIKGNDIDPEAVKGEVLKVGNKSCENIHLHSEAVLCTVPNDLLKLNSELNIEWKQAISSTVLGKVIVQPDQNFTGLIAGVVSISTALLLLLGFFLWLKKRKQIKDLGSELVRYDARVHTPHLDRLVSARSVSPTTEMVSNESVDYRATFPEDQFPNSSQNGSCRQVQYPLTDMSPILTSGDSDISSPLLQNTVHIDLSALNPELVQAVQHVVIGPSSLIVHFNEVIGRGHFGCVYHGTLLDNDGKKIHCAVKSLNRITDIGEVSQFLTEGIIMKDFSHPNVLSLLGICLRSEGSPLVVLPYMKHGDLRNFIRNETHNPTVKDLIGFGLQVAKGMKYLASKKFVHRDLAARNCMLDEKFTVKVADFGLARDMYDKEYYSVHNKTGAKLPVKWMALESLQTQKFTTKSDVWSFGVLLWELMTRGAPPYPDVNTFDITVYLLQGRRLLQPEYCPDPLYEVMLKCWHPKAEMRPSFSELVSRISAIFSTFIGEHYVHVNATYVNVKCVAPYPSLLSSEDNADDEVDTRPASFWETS
# Text: Experimental Example 3: Study of In Vitro c-Met Kinase Inhibitory Activity
# Since the screening results of 369 kinase profiles of compound DC621044 has shown that the compound has a certain inhibitory activity on c-Met. We further screened some compounds for their inhibitory activity on c-Met kinase.
# [2] = system: BaF3/TEL-AXL cells; assay: Proliferation of BaF3/TEL-AXL cells; type: cell-based
# Text: Experimental Example 4: Effect of the Compound on the Proliferation Effect of BaF3/TEL-AXL Cells
# Based on the above-mentioned enzyme activity research results, we further explored the effect of the compound on cell proliferation mediated by receptor tyrosine kinase AXL.
# [3] = system: 369 kinases; assay: Selectivity of the kinase profile (369 kinases); type: biochemical; settings: 369 kinases screened
# Text: (§1) Experimental Example 2: Study on the Selectivity of the Kinase Profile of the Compound Due to compound's potent inhibitory activity against AXL, we selected one of the compounds, DC621044, to screen 369 kinase profiles in order to investigate the compound's selectivity to the kinase profile.
# [4] = target: MER (Homo sapiens, UniProt Q12866); assay: Kinase profile screen: MER; type: biochemical; settings: 50 nM
# Text: as §1
# [5] = target: c-MET (Homo sapiens, UniProt P08581); assay: Kinase profile screen: c-MET; type: biochemical; settings: 50 nM
# Chain of c-MET (P08581 25-1390): as above
# Text: as §1
# [6] = target: AXL (Homo sapiens, UniProt P30530); assay: Kinase profile screen: AXL; type: biochemical; settings: 50 nM
# Text: as §1
# [7] = target: HIPK4 (Homo sapiens, UniProt Q8NE63); assay: Kinase profile screen: HIPK4; type: biochemical; settings: 50 nM
# Text: as §1
# [8] = target: DDR1 (Homo sapiens, UniProt Q08345); assay: Kinase profile screen: DDR1; type: biochemical; settings: 50 nM
# Chain of DDR1 (Q08345 19-913, species assumed): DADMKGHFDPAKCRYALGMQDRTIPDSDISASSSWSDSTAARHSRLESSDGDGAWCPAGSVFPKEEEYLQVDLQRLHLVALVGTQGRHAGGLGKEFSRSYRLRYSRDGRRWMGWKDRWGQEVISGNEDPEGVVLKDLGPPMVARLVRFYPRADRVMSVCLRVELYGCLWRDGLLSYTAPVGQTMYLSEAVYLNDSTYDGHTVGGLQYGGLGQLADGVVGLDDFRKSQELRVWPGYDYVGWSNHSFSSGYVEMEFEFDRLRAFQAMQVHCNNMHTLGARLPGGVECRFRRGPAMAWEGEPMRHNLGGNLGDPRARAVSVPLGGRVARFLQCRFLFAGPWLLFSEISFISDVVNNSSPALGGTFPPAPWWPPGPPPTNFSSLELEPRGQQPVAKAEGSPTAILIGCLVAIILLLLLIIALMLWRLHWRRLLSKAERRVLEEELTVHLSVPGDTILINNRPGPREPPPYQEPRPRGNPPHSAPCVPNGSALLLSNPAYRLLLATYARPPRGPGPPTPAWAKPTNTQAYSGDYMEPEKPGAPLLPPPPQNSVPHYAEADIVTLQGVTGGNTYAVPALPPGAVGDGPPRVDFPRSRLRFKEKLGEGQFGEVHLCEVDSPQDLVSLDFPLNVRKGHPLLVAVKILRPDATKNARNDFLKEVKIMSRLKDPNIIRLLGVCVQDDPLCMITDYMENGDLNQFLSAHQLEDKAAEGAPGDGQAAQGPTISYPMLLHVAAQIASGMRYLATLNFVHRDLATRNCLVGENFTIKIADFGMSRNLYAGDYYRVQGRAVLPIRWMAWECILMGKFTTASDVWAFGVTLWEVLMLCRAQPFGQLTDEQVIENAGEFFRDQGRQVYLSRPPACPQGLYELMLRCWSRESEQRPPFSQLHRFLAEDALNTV
# Text: as §1
# [9] = target: TRKA (Homo sapiens, UniProt P04629); assay: Kinase profile screen: TRKA; type: biochemical; settings: 50 nM
# Text: as §1
# [10] = target: EPHA6 (Homo sapiens, UniProt Q9UF33); assay: Kinase profile screen: EPHA6; type: biochemical; settings: 50 nM
# Text: as §1
# [11] = target: LCK (Homo sapiens, UniProt P06239); assay: Kinase profile screen: LCK; type: biochemical; settings: 50 nM
# Text: as §1
# [12] = target: TRKB (Homo sapiens, UniProt Q16620); assay: Kinase profile screen: TRKB; type: biochemical; settings: 50 nM
# Chain of TRKB (Q16620 32-822, species assumed): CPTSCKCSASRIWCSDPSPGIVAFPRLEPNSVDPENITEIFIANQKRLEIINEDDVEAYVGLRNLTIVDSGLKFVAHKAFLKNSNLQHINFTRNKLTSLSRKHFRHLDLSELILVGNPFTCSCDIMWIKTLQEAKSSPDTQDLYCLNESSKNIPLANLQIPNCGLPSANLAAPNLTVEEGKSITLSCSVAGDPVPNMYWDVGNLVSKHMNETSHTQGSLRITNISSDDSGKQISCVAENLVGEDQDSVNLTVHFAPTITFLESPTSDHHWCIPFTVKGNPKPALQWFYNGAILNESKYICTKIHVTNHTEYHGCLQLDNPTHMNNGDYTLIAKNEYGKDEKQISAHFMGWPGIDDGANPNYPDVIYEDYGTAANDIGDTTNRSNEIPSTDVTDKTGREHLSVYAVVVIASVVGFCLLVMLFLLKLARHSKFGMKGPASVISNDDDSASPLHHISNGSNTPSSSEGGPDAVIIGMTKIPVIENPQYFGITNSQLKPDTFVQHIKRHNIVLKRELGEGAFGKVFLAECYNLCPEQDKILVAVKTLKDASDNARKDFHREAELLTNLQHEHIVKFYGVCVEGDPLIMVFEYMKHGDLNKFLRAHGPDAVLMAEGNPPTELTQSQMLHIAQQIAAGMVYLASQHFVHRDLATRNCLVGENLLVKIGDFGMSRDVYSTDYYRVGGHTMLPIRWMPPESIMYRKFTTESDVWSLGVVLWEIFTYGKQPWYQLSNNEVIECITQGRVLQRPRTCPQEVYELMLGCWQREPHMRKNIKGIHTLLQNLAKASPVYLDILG
# Text: as §1
# [13] = target: FGR (Homo sapiens, UniProt P09769); assay: Kinase profile screen: FGR; type: biochemical; settings: 50 nM
# Text: as §1
# [14] = target: TYRO3/SKY (Homo sapiens, UniProt Q06418); assay: Kinase profile screen: TYRO3/SKY; type: biochemical; settings: 50 nM
# Text: as §1
# [15] = target: FLT3 (Homo sapiens, UniProt P36888); assay: Kinase profile screen: FLT3; type: biochemical; settings: 50 nM
# Text: as §1
# [16] = target: PLK4/SAK (Homo sapiens, UniProt O00444); assay: Kinase profile screen: PLK4/SAK; type: biochemical; settings: 50 nM
# Text: as §1
# [17] = target: RON/MSTIR (Homo sapiens, UniProt Q04912); assay: Kinase profile screen: RON/MSTIR; type: biochemical; settings: 50 nM
# Text: as §1
# [18] = target: IRR/INSRR (Homo sapiens, UniProt P14616); assay: Kinase profile screen: IRR/INSRR; type: biochemical; settings: 50 nM
# Text: as §1
# [19] = target: TRKC (Homo sapiens, UniProt Q16288); assay: Kinase profile screen: TRKC; type: biochemical; settings: 50 nM
# Text: as §1
# [20] = target: ASK1/MAP3K5 (Homo sapiens, UniProt Q99683); assay: Kinase profile screen: ASK1/MAP3K5; type: biochemical; settings: 50 nM
# Text: as §1
# [21] = target: MLK2/MAP3K10 (Homo sapiens, UniProt Q02779); assay: Kinase profile screen: MLK2/MAP3K10; type: biochemical; settings: 50 nM
# Text: as §1
# [22] = target: BRK (Homo sapiens, UniProt Q13882); assay: Kinase profile screen: BRK; type: biochemical; settings: 50 nM
# Text: as §1
# [23] = target: EGFR (Homo sapiens, UniProt P00533); assay: Kinase profile screen: EGFR; type: biochemical; settings: 50 nM
# Text: as §1
# [24] = target: FRK/PTK5 (Homo sapiens, UniProt P42685); assay: Kinase profile screen: FRK/PTK5; type: biochemical; settings: 50 nM
# Chain of FRK/PTK5 (P42685 whole entry): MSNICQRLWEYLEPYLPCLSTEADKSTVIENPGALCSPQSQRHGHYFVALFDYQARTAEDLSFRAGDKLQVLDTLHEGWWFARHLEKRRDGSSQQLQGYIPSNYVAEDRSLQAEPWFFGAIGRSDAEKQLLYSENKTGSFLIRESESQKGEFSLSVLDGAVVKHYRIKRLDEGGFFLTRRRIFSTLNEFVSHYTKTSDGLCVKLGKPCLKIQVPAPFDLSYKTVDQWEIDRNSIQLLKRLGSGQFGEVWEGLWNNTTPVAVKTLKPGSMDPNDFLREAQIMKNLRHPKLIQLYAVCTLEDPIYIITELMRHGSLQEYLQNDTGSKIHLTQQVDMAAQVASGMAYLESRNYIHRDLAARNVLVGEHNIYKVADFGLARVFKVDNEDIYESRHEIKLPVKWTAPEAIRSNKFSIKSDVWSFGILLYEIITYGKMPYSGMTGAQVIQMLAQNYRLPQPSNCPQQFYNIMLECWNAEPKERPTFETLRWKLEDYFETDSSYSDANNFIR
# Text: as §1
structure (smiles),measurement,setting,value
"COCCOc1cc2ncnc(Oc3ccc(NC(=O)c4c5n(n(-c6ccc(F)cc6)c4=O)CCCC5)cc3F)c2cc1OCCOC [DC621044, N-(4-((6,7-bis(2-methoxyethoxy)quinazolin-4-yl)oxy)-3-fluorophenyl)-1-(4-fluorophenyl)-2-oxo-1,2,4,5,6,7-hexahydropyrazolo[1,5-a]pyridine-3-formamide]",c-Met Inhibitory rate (%),"[1]; 1 nM, 0.001 µM",30.6% and 52.3%
same,c-Met Inhibitory rate (%),"[1]; 10 nM, 0.01 µM",75.1%
same,inhibition at 0.01 µM,"[1]; 10 nM, read-out: c-Met Inhibitory rate (%)",69.4%
same,c-Met Inhibitory rate (%),"[1]; 100 nM, 0.1 µM",100%
same,inhibition at 0.1 µM,"[1]; 100 nM, read-out: c-Met Inhibitory rate (%)",97.1%
same,BaF3/TEL-AXL proliferation Inhibitory rate (%),"[2]; 1 nM, two values per compound, 0.001 µM",64.2%
same,BaF3/TEL-AXL proliferation Inhibitory rate (%),"[2]; 10 nM, two values per compound, 0.01 µM",75.9%
same,BaF3/TEL-AXL proliferation Inhibitory rate (%),"[2]; 100 nM, two values per compound, 0.1 µM",88.2%
same,inhibition at 0.001 µM,"[2]; BaF3/TEL-AXL, 1 nM, two values per compound, read-out: BaF3/TEL-AXL proliferation Inhibitory rate (%)",78.9%
same,inhibition at 0.01 µM,"[2]; BaF3/TEL-AXL, 10 nM, two values per compound, read-out: BaF3/TEL-AXL proliferation Inhibitory rate (%)",79.8%
same,inhibition at 0.1 µM,"[2]; BaF3/TEL-AXL, 100 nM, two values per compound, read-out: BaF3/TEL-AXL proliferation Inhibitory rate (%)",85.9%
same,inhibition at 0.001 µM,"[2]; BaF3/TEL-AXL, concentration of 1 nM, read-out: inhibited the proliferation of BaF3/TEL-AXL cells",> 70%
same,kinase profile selectivity (in words),[3],good selectivity for AXL kinase
same,inhibition at 0.05 µM,[4]; the first time,99.4%
same,inhibition at 0.05 µM,[4]; the second time,99.5%
same,inhibition at 0.05 µM,[5]; the first time,98.6%
same,inhibition at 0.05 µM,[5]; the second time,99%
same,inhibition at 0.05 µM,[6]; the first time,94.6%
same,inhibition at 0.05 µM,[6]; the second time,95.2%
same,inhibition at 0.05 µM,[7]; the first time,77.2%
same,inhibition at 0.05 µM,[7]; the second time,77.2%
same,inhibition at 0.05 µM,[8]; the first time,64.1%
same,inhibition at 0.05 µM,[8]; the second time,64.2%
same,inhibition at 0.05 µM,[9]; the first time,59.2%
same,inhibition at 0.05 µM,[9]; the second time,60.3%
same,inhibition at 0.05 µM,[10]; the first time,57.3%
same,inhibition at 0.05 µM,[10]; the second time,57.8%
same,inhibition at 0.05 µM,[11]; the first time,52.8%
same,inhibition at 0.05 µM,[11]; the second time,53.1%
same,inhibition at 0.05 µM,[12]; the first time,52.1%
same,inhibition at 0.05 µM,[12]; the second time,52.2%
same,inhibition at 0.05 µM,[13]; the first time,41.2%
same,inhibition at 0.05 µM,[13]; the second time,41.2%
same,inhibition at 0.05 µM,[14]; the first time,41%
same,inhibition at 0.05 µM,[14]; the second time,41.2%
same,inhibition at 0.05 µM,[15]; the first time,28%
same,inhibition at 0.05 µM,[15]; the second time,29.3%
same,inhibition at 0.05 µM,[16]; the first time,27.2%
same,inhibition at 0.05 µM,[16]; the second time,29.8%
same,inhibition at 0.05 µM,[17]; the first time,25.9%
same,inhibition at 0.05 µM,[17]; the second time,27.2%
same,inhibition at 0.05 µM,[18]; the first time,25.8%
same,inhibition at 0.05 µM,[18]; the second time,28.3%
same,inhibition at 0.05 µM,[19]; the first time,23.8%
same,inhibition at 0.05 µM,[19]; the second time,24.1%
same,inhibition at 0.05 µM,[20]; the first time,22.5%
same,inhibition at 0.05 µM,[20]; the second time,23.5%
same,inhibition at 0.05 µM,[21]; the first time,22.4%
same,inhibition at 0.05 µM,[21]; the second time,23.9%
same,inhibition at 0.05 µM,[22]; the first time,18.9%
same,inhibition at 0.05 µM,[22]; the second time,19.4%
same,inhibition at 0.05 µM,[23]; the first time,17.9%
same,inhibition at 0.05 µM,[23]; the second time,18.6%
same,inhibition at 0.05 µM,[24]; the first time,17.1%
same,inhibition at 0.05 µM,[24]; the second time,17.7%
